pEC50: −log10 of the molar value.
Tests used:
DP = target: T1, DP (Homo sapiens, UniProt Q13258); experiment: DP activity study; type: cell-based
T1 sequence (Q13258 1-359): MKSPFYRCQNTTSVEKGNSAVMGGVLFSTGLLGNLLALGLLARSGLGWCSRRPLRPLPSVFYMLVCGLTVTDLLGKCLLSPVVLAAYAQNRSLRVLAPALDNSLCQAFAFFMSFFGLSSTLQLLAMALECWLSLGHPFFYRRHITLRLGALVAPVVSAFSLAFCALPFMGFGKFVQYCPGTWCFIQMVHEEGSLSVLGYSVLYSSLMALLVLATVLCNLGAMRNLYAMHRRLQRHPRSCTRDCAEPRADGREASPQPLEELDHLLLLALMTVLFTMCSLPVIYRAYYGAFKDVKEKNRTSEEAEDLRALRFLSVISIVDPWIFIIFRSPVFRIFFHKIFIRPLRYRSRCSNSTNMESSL
Description: (§1) Data from running binding and activity studies on the compounds of the invention were carried out as described in U.S. Pat. No. 7,427,685, the contents of which are incorporated herein by reference.

EP2 [1] = target: T2, EP2 (Homo sapiens, UniProt P43116); experiment: EP2 cAMP activity study; type: cell-based
Description: as §1

EP3 = target: T3, EP3 (Homo sapiens, UniProt P43115); experiment: EP3 activity study; type: cell-based
T3 sequence (P43115 1-390): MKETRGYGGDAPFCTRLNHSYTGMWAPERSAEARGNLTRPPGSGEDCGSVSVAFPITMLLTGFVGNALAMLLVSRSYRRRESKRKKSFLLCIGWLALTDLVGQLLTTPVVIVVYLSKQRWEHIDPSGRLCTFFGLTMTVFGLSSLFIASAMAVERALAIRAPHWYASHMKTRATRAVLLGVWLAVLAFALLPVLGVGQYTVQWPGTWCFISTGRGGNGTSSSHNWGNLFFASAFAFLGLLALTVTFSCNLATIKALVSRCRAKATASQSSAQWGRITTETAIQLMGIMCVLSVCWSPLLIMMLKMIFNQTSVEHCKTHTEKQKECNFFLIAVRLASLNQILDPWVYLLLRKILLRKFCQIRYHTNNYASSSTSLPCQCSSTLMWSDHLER
Description: as §1

TP = target: T4, TP (Homo sapiens, UniProt P21731); experiment: TP activity study; type: cell-based
T4 sequence (P21731 1-343): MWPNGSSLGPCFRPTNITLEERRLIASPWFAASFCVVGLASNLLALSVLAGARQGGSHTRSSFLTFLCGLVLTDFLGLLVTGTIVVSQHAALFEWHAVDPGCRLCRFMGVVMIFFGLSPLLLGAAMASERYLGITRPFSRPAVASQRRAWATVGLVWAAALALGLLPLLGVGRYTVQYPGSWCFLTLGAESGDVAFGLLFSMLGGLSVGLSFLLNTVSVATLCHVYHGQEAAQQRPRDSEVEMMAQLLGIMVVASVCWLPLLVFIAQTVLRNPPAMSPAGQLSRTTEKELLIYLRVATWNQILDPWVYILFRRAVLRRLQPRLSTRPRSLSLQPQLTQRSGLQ
Description: as §1

EP4 [2] = target: T5, EP4 (Homo sapiens, UniProt P35408); experiment: EP4 binding study
Description: as §1

EP1 = target: T6, EP1 (Homo sapiens, UniProt P34995); experiment: EP1 activity study; type: cell-based
T6 sequence (P34995 1-402): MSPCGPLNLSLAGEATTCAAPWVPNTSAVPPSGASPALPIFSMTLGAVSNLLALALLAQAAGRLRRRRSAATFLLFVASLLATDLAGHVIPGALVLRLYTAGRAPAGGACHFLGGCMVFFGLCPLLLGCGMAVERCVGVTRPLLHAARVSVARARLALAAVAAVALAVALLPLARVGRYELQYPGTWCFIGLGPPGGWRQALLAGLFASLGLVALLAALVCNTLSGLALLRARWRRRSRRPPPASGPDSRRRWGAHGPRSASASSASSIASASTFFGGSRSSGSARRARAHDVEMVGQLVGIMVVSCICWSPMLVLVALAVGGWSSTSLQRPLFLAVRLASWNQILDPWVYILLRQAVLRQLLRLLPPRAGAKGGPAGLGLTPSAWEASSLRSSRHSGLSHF
Description: as §1

EP4 [3] = target: T5, EP4; experiment: EP4 Ca2+ signal activity study; type: cell-based
Description: as §1

EP2 [4] = target: T2, EP2; experiment: EP2 Ca2+ signal activity study; type: cell-based
Description: as §1

EP2 [5] = target: T2, EP2; experiment: EP2 binding study
Description: as §1

T5 sequence (P35408 whole entry): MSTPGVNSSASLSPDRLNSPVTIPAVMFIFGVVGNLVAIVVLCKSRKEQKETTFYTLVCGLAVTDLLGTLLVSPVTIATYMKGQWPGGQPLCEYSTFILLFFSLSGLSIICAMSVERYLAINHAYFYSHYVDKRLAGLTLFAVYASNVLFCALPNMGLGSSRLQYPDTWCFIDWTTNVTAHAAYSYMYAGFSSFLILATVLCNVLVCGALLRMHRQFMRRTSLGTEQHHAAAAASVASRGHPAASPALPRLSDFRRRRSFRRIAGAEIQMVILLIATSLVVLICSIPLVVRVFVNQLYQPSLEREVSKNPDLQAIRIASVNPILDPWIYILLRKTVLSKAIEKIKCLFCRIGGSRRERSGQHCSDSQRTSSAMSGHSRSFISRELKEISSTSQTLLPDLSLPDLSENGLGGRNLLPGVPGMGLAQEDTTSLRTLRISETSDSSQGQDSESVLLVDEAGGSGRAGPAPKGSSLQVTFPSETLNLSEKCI
T2 sequence (P43116 whole entry): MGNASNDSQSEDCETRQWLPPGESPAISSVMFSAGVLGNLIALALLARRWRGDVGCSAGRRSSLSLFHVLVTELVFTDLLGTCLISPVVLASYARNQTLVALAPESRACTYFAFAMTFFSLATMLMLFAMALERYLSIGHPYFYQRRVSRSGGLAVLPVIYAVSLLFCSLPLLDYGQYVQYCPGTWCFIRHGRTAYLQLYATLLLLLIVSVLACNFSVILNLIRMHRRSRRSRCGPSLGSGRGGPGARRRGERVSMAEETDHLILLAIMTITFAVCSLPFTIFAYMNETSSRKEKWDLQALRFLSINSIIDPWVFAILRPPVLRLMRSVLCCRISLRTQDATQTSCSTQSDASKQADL

Structure (SMILES): C[C@@H](O)CCC[C@H](O)/C=C/[C@@H]1[C@@H](CCCc2ccc(C(=O)O)s2)[C@H](Cl)C[C@H]1O
- pEC50 (DP): 5.17

Structure (SMILES): CCCC(O)CC(O)/C=C/[C@@H]1[C@@H](CCCc2ccc(C(=O)O)s2)[C@H](Cl)C[C@H]1O (stereo partly shown)
- pEC50 (EP2 [1]): 8.52
- pEC50 (EP3): 6.16
- pEC50 (TP): 5.32
- pEC50 (EP4 [2]): 6.36
- pEC50 (EP1): 5.91
- pEC50 (EP4 [3]): 7.64
- pEC50 (EP2 [4]): 7.57
- pEC50 (EP2 [5]): 6.15
- pEC50 (DP): 5.65

Structure (SMILES): CCCCC(O)[C@H](O)/C=C/[C@@H]1[C@@H](CCCc2ccc(C(=O)O)s2)[C@H](Cl)C[C@H]1O (stereo partly shown)
- pEC50 (EP2 [1]): 8.64
- pEC50 (EP4 [2]): 6.31
- pEC50 (EP4 [3]): 7.35
- pEC50 (EP2 [4]): 8.05
- pEC50 (EP2 [5]): 6.83
- pEC50 (DP): 6.05

Structure (SMILES): O=C(O)c1ccc(CCC[C@@H]2[C@@H](/C=C/[C@@H](O)CCCCCO)[C@H](O)C[C@H]2Cl)s1
- pEC50 (EP2 [1]): 9.40
- pEC50 (EP3): 6.89
- pEC50 (TP): 5.12
- pEC50 (EP4 [2]): 5.95
- pEC50 (EP1): 7.00
- pEC50 (EP4 [3]): 7.17
- pEC50 (EP2 [4]): 8.40
- pEC50 (EP2 [5]): 6.83
- pEC50 (DP): 5.47

Structure (SMILES): C[C@@H](O)CCCC[C@H](O)/C=C/[C@@H]1[C@@H](CCCc2ccc(C(=O)O)s2)[C@H](Cl)C[C@H]1O [5-(3-((1R,2R,3R,5R)-5-Chloro-2-((3S 8R,E)-3,8-dihydroxynon-1-en-1-yl)-3-hydroxycyclopentyl)propyl)thiophene-2-carboxylic acid]
- pEC50 (EP2 [1]): 8.85
- pEC50 (EP3): 6.65
- pEC50 (EP4 [2]): < 5.00
- pEC50 (EP1): 6.68
- pEC50 (EP4 [3]): 6.34
- pEC50 (EP2 [4]): 7.54
- pEC50 (EP2 [5]): 6.44
- pEC50 (DP): 5.34

Structure (SMILES): C[C@@H](O)CCCC[C@@H](O)/C=C/[C@@H]1[C@@H](CCCc2ccc(C(=O)O)s2)[C@H](Cl)C[C@H]1O [5-(3-((1R,2R,3R,5R)-5-chloro-2-((3R,8R,E)-3,8-dihydroxynon-1-en-1-yl)-3-hydroxycyclopentyl)propyl)thiophene-2-carboxylic acid]
- pEC50 (EP2 [1]): 7.85
- pEC50 (EP3): 5.15
- pEC50 (EP4 [2]): 5.47
- pEC50 (EP1): 5.37
- pEC50 (EP4 [3]): < 5.00
- pEC50 (EP2 [4]): 6.48
- pEC50 (EP2 [5]): 6.44
